Test results as given in patent US20070173461A1, “Glycoside prodrug of 5-aminosalicylic acid” (Nippon Shinyaku Co., Ltd., priority 2004, published 2007).
One block for each compound: values may come before it.

Assays:
[1] = rat, in vivo; cited from earlier work
[2] = Concentration of 5-ASA in colonic tissue and rectal tissue after oral administration; assay type: in vivo, rat; conditions: rats, p.o., 50 mg/kg as 5-ASA; FIGS. 6 and 7
Experimental: Further, the compound [2] and Pentasa ™ were orally administered at a dose of 50 mg/kg as 5-ASA, and the colon and the rectum were homogenated and centrifuged. Then, the concentrations of 5-ASA in the colonic tissue and the rectal tissue were measured by high performance liquid chromatography (HPLC). As for Pentasa ™, granules obtained by pulverizing Pentasa ™ tablet were used.

[3] = Measurement of plasma concentration of 5-ASA (HPLC) after administration to rats; assay type: in vivo, rat; conditions: for Plasma concentration of 5-ASA after oral administration (in words, FIG. 1): rats, p.o., 50 mg/kg as 5-ASA
Experimental: To SD male rats at 7 weeks of age, 5-ASA was intravenously administered as a test drug, and the compound [1], the compound [2], the compound [3] or Pentasa ™ was orally administered at a dose of 50 mg/kg as5-ASA. The plasma concentration of 5-ASA was measured by high performance liquid chromatography (HPLC). As for Pentasa (registered trademark), granules obtained by pulverizing Pentasa (registered trademark) tablet were used.

[4] = Amount of 5-ASA in cecal, proximal colonic, distal colonic and rectal contents after oral administration; assay type: in vivo, rat; conditions: rats, p.o., 50 mg/kg as 5-ASA; compared with Pentasa and 5-ASA; FIGS. 2-5
Experimental: To SD male rats at 7 weeks of age, the compound [1], Pentasa ™ and 5-ASA were orally administered at a dose of 50 mg/kg as 5-ASA, and the contents in the cecum, the proximal colon, the distal colon and the rectum were homogenated and centrifuged. Then, the amount of 5-ASA in the respective sites of the large intestine was measured by high performance liquid chromatography (HPLC). As for Pentasa ™, granules obtained by pulverizing Pentasa ™ tablet were used.

TNBS-induced colitis = assay: Trinitrobenzenesulfonic acid (TNBS)-induced colitis in rats; assay type: in vivo, rat; conditions: 3 days after TNBS, female SD rats
Experimental: To a female SD rat fasted for 24 hours, an aqueous solution of TNBS/50% ethanol (30 mg/0.25 ml/rat) was administered in the colon at 8 cm from the anus using a probe for oral administration under pentobarbital anesthesia to induce colitis. At 3 days after the administration of TNBS, the colon was excised, and the wet weight of the colon of 8 cm long from the anus was weighed. The degree of colitis onset was scored in accordance with the method of Wallace et al. (Gastroenterology 96, 29-36 (1989)). As the test compounds, Pentasa ™ at doses of 30 mg/kg and 100 mg/kg and compound [1] at doses of 61.8 mg/kg and 205.9 mg/kg (corresponding to 30 mg/kg and 100 mg/kg in terms of 5-ASA) were orally administered twice a day (on the day of TNBS administration, once at 4 hours before TNBS administration). Pentasa ™ was administered as granules obtained by pulversing Pentasa ™ tablet.

SMILES: C[C@@H]1C[C@H]2[C@@H]3CCC4=CC(=O)C=C[C@]4(C)[C@@]3(F)[C@@H](O)C[C@]2(C)[C@@]1(O)C(=O)COC1O[C@H](CO)[C@@H](O)[C@H](O)[C@H]1O (stereo partly drawn) [glucose derivative of dexamethasone]
Fraction delivered to the cecum [1]: 60%

SMILES: Nc1ccc(O[C@@H]2O[C@H](CO)[C@@H](O)[C@H](O)[C@H]2O)c(C(=O)O)c1 [[3], 5-amino-2-(β-D-glucopyranosyloxy)benzoic acid]
Plasma concentration of 5-ASA after oral administration (in words, FIG. 1) [3]: remained low as compared with those of Pentasa

More lines, main results first:

Concentrations of 5-ASA in the colonic tissue and the rectal tissue [2]: higher as compared with Pentasa
SMILES: Nc1ccc(O[C@H]2O[C@H](CO)[C@H](O)[C@H](O)[C@H]2O)c(C(=O)O)c1 [[2], 5-amino-2-(α-D-galactopyranosyloxy)benzoic acid]
Plasma concentration of 5-ASA after oral administration (in words, FIG. 1) [3]: remained low as compared with those of Pentasa

Amount of 5-ASA in the respective sites of the large intestine (cecum, proximal colon, distal colon, rectum contents) [4]: highest value
SMILES: Nc1ccc(O[C@@H]2O[C@H](CO)[C@H](O)[C@H](O)[C@H]2O)c(C(=O)O)c1 [Compound [1], 5-amino-2-(β-D-galactopyranosyloxy)benzoic acid]
Damage score (TNBS-induced colitis; 61.8 mg/kg (corresponding to 30 mg/kg as 5-ASA) p.o. twice a day): significantly reduced
Increase of the wet weight of the colon (TNBS-induced colitis; 205.9 mg/kg (corresponding to 100 mg/kg as 5-ASA) p.o. twice a day): inhibited the increase of the wet weight of the colon significantly
Plasma concentration of 5-ASA after oral administration (in words, FIG. 1) [3]: remained low as compared with those of Pentasa

AUC ([3]; rat, iv, plasma 5-ASA, SD male rats, i.v., 1 mg/kg, read-out: Area under the curve of concentration (AUC)): 1420 ng·h/mL
SMILES: Nc1ccc(O)c(C(=O)O)c1 [Compound 5-ASA, 5-Aminosalicylic acid]
